Measurements from patent US9687467B2, “Diagnosis and treatment of taxane-resistant cancers” (Children's Medical Center Corporation, priority 2011, dated 2017).
Where two headings read alike, the source gives them in different places.

Key:
T20.2 cells = experiment: cells; format: cell-based; conditions: Homo sapiens
Description: (FIG. 7A). The parental A549 cells, a cell line that became refractory during in vivo treatment with paclitaxel (T20.2 round 1) and the same cell line established after yet another round of in vivo paclitaxel treatment (T20.2 reinjection) were treated with paclitaxel and cell viability was assessed using the MTT assay. Represented are average LC50±s.e.m. determined by MTT assay for parental A549 cells (white boxes), **P<0.001, *P<0.05 as determined by Wilcoxon's rank sum test for T20.2 round 1 cells (hatched boxes) and for T20.2 re-injection cells (filled boxes). (FIG. 7B) The expression of miR-135a was examined in these cells by qRT-PCR. *P<0.05 as determined by Wilcoxon's rank sum test. […] The correlation between paclitaxel response and miR-135a expression was calculated using the Spearman's rank test. […] Subsequently, cells were treated with the indicated concentrations of paclitaxel and cell viability was assessed using the MTT assay. […]
Approximately 4×10^6 human A549 NSCLC cells were resuspended in 50% Matrigel (BD Biosciences, Bedford, Mass.) and injected subcutaneously into the hind flanks of 8-wk old male athymic (nu/nu) nude mice (Taconic Farms, Inc., Hudson, N.Y.). […] Tumor size was determined by digital caliper measurements (length and width in mm), and tumor volume (mm^3) was estimated using the formula (length×width^2)/2. […]

A549 xenografts = experiment: A549 xenograft mouse model, paclitaxel treatment; format: in vivo, nude mice
Description: (FIG. 5A) A suspension of A549 cells was injected subcutaneously into the flank of a nude mouse. When the average tumor volume was at least 120 mm^3, vehicle or paclitaxel (15 mg/kg) was administered intraperitoneally every other day. Treatment was continued until tumors reached approximately four times their initial volume. Paclitaxel-refractory, as well as vehicle-treated tumors, were digested with collagenase and cultured in vitro (adapted from Norman E et al. Nature Reviews Drug Discovery 2006; 5: 741-754). (FIG. 5B) Tumor growth was determined as the tumor volume on the day of treatment relative to the tumor volume at the start of treatment and presented as a ratio. Each line represents the growth of an individual tumor (T) in an individual mouse (indicated by a number). Groups of mice are separated into control, paclitaxel-responsive and paclitaxel non-responsive (continuous tumor growth in the presence of paclitaxel) groups. […] (FIG. 5C) Vehicle-treated tumors (hatched bars) or paclitaxel-refractory tumors (black bars) were harvested from mice and used to generate two cell lines per tumor. The indicated cell lines were cultured in vitro and cell viability was assessed 72 h after paclitaxel addition using the MTT assay. Bars represent average LC50±s.e.m. from triplicate experiments.
Nude mice were inoculated with A549 cells. At an average tumor volume of ˜120 mm^3, vehicle control and 10 mg/kg (FIG. 10A) or 12.5 mg/kg (FIG. 10B) paclitaxel was administered i.p. every day. Each curve represents the tumor volume on the day of treatment relative to day 0 per mouse.
To further establish the role of miR-135a in paclitaxel response, the A549 xenograft mouse model was adapted from the protocol previously described by Patel et al., 2010. Briefly, nude mice bearing subcutaneous A549 xenografts were injected intraperitoneally with either vehicle or 15 mg/kg paclitaxel until tumors that responded initially began to regrow (FIG. 5A). […] After 120 days of paclitaxel treatment, control and paclitaxel-refractory tumors were harvested. Within two passages in vitro, RNA was harvested for miRNA evaluation and determination of paclitaxel response.
Approximately 4×10^6 human A549 NSCLC cells were resuspended in 50% Matrigel (BD Biosciences, Bedford, Mass.) and injected subcutaneously into the hind flanks of 8-wk old male athymic (nu/nu) nude mice (Taconic Farms, Inc., Hudson, N.Y.). […] Tumor size was determined by digital caliper measurements (length and width in mm), and tumor volume (mm^3) was estimated using the formula (length×width^2)/2. Effects on tumor growth rate were assessed per mouse by determining the tumor volume on the day of treatment relative to the tumor volume on Day 0. […]

A549 control cells = experiment: Xenograft of A549 control cells, paclitaxel treatment; format: in vivo, nude mice; conditions: paclitaxel three times a week for 3 weeks; P<0.001
Description: A549 cells stably expressing either non-targeting premiR (A549-control) or premiR-135a (A549-miR-135a) were generated. (FIG. 8A) miR-135a expression level in A549-control and -miR-135a was determined and compared with A549 and A549TR cells using qRT-PCR analysis. *P<0.01. (FIG. 8B) Paclitaxel response of A549-control and A549-premiR-135a cells was determined using the MTT assay. (FIG. 8C) APC protein expression was examined using western blot analysis in A549-control and -premiR-135a cells. (FIG. 8D) A549-control and -premiR-135a cells were inoculated subcutaneously into the flanks of nude mice. Paclitaxel treatment was given three times a week for 3 weeks. The tumor size in each group was measured during the course of treatment and was calculated, relative to the size before treatment initiation. Each curve represents the average tumor growth±s.e.m. for 10 mice per group. **P<0.001 as determined by Wilcoxon's rank sum test.
The inventors subsequently investigated the role of miR-135a in paclitaxel sensitivity in vivo. […] As expected, miR-135a […] attenuated paclitaxel-induced cell death (FIG. 8B) and APC protein expression (FIG. 8C) relative to control transfected A549 cells in vitro. […] Paclitaxel treatment was given three times a week for 3 weeks, and tumor size in each group was monitored during the course of treatment. […]

[1] = Mouse weight during paclitaxel treatment; format: in vivo, nude mice; conditions: 15 mg/kg paclitaxel intraperitoneally 3 times per week
Description: FIG. 11 is a line graph indicating mouse weight in paclitaxel-treated and control groups. Tumor-bearing nude mice were treated i.p. with 15 mg/kg paclitaxel every other day. Animals were weighed before each injection on a digital scale. Each curve represents the mean weight±s.e.m. of 10 mice per day of treatment.
Approximately 4×10^6 human A549 NSCLC cells were resuspended in 50% Matrigel (BD Biosciences, Bedford, Mass.) and injected subcutaneously into the hind flanks of 8-wk old male athymic (nu/nu) nude mice (Taconic Farms, Inc., Hudson, N.Y.). When the average tumor volume reached ˜150 mm^3, mice (N=10 per group) were randomly assigned to the treatment or control group (Day 0). Mice were treated with vehicle (control) or 15 mg/kg paclitaxel (Bristol-Myers Squibb Co, Princeton, N.J.) intraperitoneally 3 times per week (on Mondays, Wednesdays, and Fridays). […] Tumor size was determined by digital caliper measurements (length and width in mm), and tumor volume (mm^3) was estimated using the formula (length×width^2)/2. Effects on tumor growth rate were assessed per mouse by determining the tumor volume on the day of treatment relative to the tumor volume on Day 0. Animals were sacrificed once morbidity became evident or their tumor size exceeded 1000 mm^3. […]

CC(=O)O[C@H]1C(=O)[C@@]2(C)[C@H]([C@H](OC(=O)c3ccccc3)[C@]3(O)C[C@H](OC(=O)[C@H](O)[C@@H](NC(=O)c4ccccc4)c4ccccc4)C(C)=C1C3(C)C)[C@]1(OC(C)=O)CO[C@@H]1C[C@@H]2O [paclitaxel]
CC50 (T20.2 cells; read-out: median LC50, after one in vivo passage (T20.2 round 1), MTT, P=0.030): 13.3 nM
CC50 (T20.2 cells; read-out: median LC50, after re-injection (T20.2 reinjection), MTT, P=0.008): 127 nM
generation of paclitaxel-refractory tumors (A549 xenografts; 10 mg/kg paclitaxel i.p.): did not generate any paclitaxel-refractory tumors
generation of paclitaxel-refractory tumors (A549 xenografts; 12.5 mg/kg paclitaxel i.p.): did not generate any paclitaxel-refractory tumors
mice with prolonged response (A549 xenografts; 15 mg/kg paclitaxel intraperitoneally): 7 out of 10
mice that became paclitaxel-refractory (A549 xenografts; 15 mg/kg paclitaxel intraperitoneally, continued treatment): 3 out of 10
reduction of relative tumor burden at the end of the experiment (A549 control cells): 5 fold
mouse morbidity as measured by mouse weight [1]: minimal effects on mouse morbidity
